Two compounds from patent US20240316059A1, “PEPTIDE DRUG CONJUGATES” (Oncopeptides AB, priority 2021, published 2024) can be followed below.

The IC50 is the midpoint of a concentration-inhibition curve.

A value given as a limit tells only on which side of the number the result lay.

The subject of data set [1] is SK-MM-1. Put plainly: In vitro cytotoxicity, SK-MM-1 (Plasma Cell Leukemia). The class given is cell-based. To be noted: Homo sapiens, 72 h, read-out: Cytotoxicity IC50, SK-MM-1. As for the experimental part: (§1) All cells were cultivated in RPMI medium 1640 (IX). All media was supplemented with 10 μg/μl penicillin/streptomycin, 10% heat inactivated FBS, 0.1 mM Sodium Pyruvate, 1×MEM NEAA (ThermoFisher) and 1 mM HEPES. The DERL-2 cells had higher FBS (20%) and 40 ng/mL IL-2 was added. hPBMCs were thawed and allowed to acclimatise overnight and then stimulated with 10 μg/mL PHA-M and 40 ng/mL IL-2 for 4 hours before being exposed to test compounds. All cells, except for hPBMCs, were grown to reach log phase before being exposed to the test compounds.
(§2) Test compounds were dissolved in 100% DMSO and added to a 384 assay plate. Additional DMSO was added to maintain the same final DMSO concentration (0.2%) in all wells. 25 μL cell suspension with a concentration of 100000 cells/mL was added to each well. The cells were cultured in a CO2 incubator at 37° C. for 72 h. Plates were equilibrated to room temperature for 30 minutes before adding 20 μL CellTiter-Glo® 2.0 (Promega) reagent to all wells. The plate was then allowed to stabilize for 20 minutes before recording the luminescence (Em filter 700 nm) in an Envision plate reader.

Data set [2] relates to Toledo. Briefly: In vitro cytotoxicity, Toledo (Diffuse Large B Cell Lymphoma). The class given is cell-based. As to conditions: Homo sapiens, 72 h, read-out: Cytotoxicity IC50, Toledo. As to the method: as §1, §2
The subject of data set [3] is RPMI-8226. Put plainly: In vitro cytotoxicity, RPMI-8226 (Multiple Myeloma, resistant). The class given is cell-based. As to conditions: Homo sapiens, RPMI-8226, 72 h, read-out: Cytotoxicity IC50, RPMI-8226. As to the method: as §1, §2
Data set [4] relates to SC-1. Put plainly: In vitro cytotoxicity, SC-1 (B cell Lymphoma). The class given is cell-based. As to conditions: Homo sapiens, SC-1, 72 h, read-out: Cytotoxicity IC50, SC-1. As for the experimental part: as §1, §2
Data set [5] has as its system DOHH-2. Briefly: In vitro cytotoxicity, DOHH-2 (B Cell Lymphoma). The class given is cell-based. To be noted: Homo sapiens, DOHH-2, 72 h, read-out: Cytotoxicity IC50, DOHH-2. As for the experimental part: as §1, §2
The subject of data set [6] is AMO-1. Put plainly: In vitro cytotoxicity, AMO-1 (Multiple Myeloma). The class given is cell-based. As to conditions: Homo sapiens, AMO1, 72 h, read-out: Cytotoxicity IC50, AMO-1. As to the method:
as §1, §2

The test system of data set [7] is DNA prepared from MM.1S cells (nuclear HPRT and mitochondrial DNA). Put plainly: Direct DNA damage, PCR amplification of treated DNA (HPRT and mtDNA primers). To be noted: 0.25 μM compound, 30 minutes, 37° C., 1 μg DNA. The class given is biochemical, human. As for the experimental part: Method: DNA was prepared from MM.1S cells by QIAGEN genomic tip 20/G according to protocol described in Furda et al., Methods Mol Biol, 2012. 1 μg of DNA was treated with 0.25 μM compound for 30 minutes at 37° C. DMSO was used as control treatment. 20 ng of the treated DNA was PCR amplified using Phusion Hot Start II High Fidelity PCR Master Mix (Thermo Scientific) and primers directed to either HPRT or primers directed to mitochondrial DNA (mtDNA) was used, generating 10.4 or 8.9 kb fragments, respectively. The PCR reactions were separated on a 1% agarose gel and visualized by ChemiDoc™ MP Imaging System (BioRad). Example compounds 1, 2 and 38 were investigated, as were compounds 18 and 20, which are metabolites of compound 1. They were compared with bendamustine, melphalan and DMSO control. The results for compounds 1, 2, 18 and 20 with the HPRT primers are shown in FIG. 4(A); the results with the mtDNA primers are shown in FIG. 4(B).

Data set [8] concerns U937. Briefly: In vitro cytotoxicity, U937 (Histiocytic Lymphoma). As to conditions: Homo sapiens, U-937, 72 h, read-out: Cytotoxicity IC50, U937. The class given is cell-based. As for the experimental part: as §1, §2
Data set [9] deals with SU-DHL-8. Briefly: In vitro cytotoxicity, SU-DHL-8 (B-cell non-Hodgkin Lymphoma). The class given is cell-based. As to conditions: Homo sapiens, SU-DHL-8, 72 h, read-out: Cytotoxicity IC50, SU-DHL-8. As for the experimental part:
as §1, §2

Data set [10] relates to SUP-T1. Briefly: In vitro cytotoxicity, SUP-T1 (T cell Lymphoma). The class given is cell-based. As to conditions: Homo sapiens, SUP-T1, 72 h, read-out: Cytotoxicity IC50, SUP-T1. As for the experimental part: as §1, §2
The test system of data set [11] is MM.1S cells. Put plainly: Cellular retention/efflux: intracellular and extracellular concentrations by LC-MS/MS. The class given is in vitro ADME, human. As to the method: Methods: MMA1S cells at 2×10^6 cells/mL were seeded at 250 μL per well in a 96-well plate. Cells were incubated in the presence of a test compound for 5, 15, and 60 min before pelleting cells by centrifugation at +4° C. for 5 min. Cell media was immediately harvested to a second plate and stored at −80° C. until further analysis. Pelleted cells were washed once with ice cold PBS before storage at −80° C. until further analysis.
Cells were lysed and protein in the media were precipitated using acetonitrile dimethylformamide, 9:1 containing internal standard. Samples were centrifuged and the supernatant was analyzed with LC-MS/MS (ACQUITY UPLC-Xevo TQ-S micro) to determine compound concentration.
Example compound 1, bendamustine and melphalan were used as test compounds.
Method: Method described in Biological example 3.
Example compounds 1, 2, 3, 4, 6, 7 and 10 were investigated. Intracellular metabolites are formed from all compounds tested. The compound used for cell treatment was metabolised to the ester-hydrolysed compound (here called Metabolite A) and to the amide-hydrolysed compound (called Metabolite B). The example compound structures and the structures of the two metabolites for the respective compounds were as shown in Table 4. The Metabolites B formed under the conditions tested were compounds with structure as Examples 17 and 18: […]

In data set [12] the test system is MM.1S cells. Put plainly: DNA fragmentation, APO-BrdU TUNEL assay by flow cytometry. The class given is cell-based, human. To be noted: 24 h; for Cells with DNA breaks (TUNEL positive cells): 0.6 μM; for Dose response effect on DNA damage (TUNEL): 0.006, 0.06, 0.6 or 6 μM. As for the experimental part:
Method: 1×10^6 MM.1S cells (CRL-2974, ATCC) were treated with Example compound 1 or Bendamustine at 0.006, 0.06, 0.6 or 6 μM for 24 h. After incubation, the cells were washed with PBS (10010-015, Gibco), fixed in Flow Cytometry Fixation Buffer (FC004, R&D Systems) for 10 min and stored in 70% ethanol at −20° C. overnight. The deoxythymidine analog (BrdUTP) was present in the experiment and served to label the DNA break sites. Next day, the cells were washed and stained using an APO-BrdU™ TUNEL Assay Kit, according to the manufacturer's protocol (A23210, Invitrogen), followed by the analysis using BD FACSCanto™ II. The percentage of TUNEL positive cells indicates the percentage of cells with fragmented DNA.

For data set [13], the system named is DERL-2. Briefly: In vitro cytotoxicity, DERL-2 (T cell Lymphoma). The class given is cell-based. To be noted: Homo sapiens, 72 h, read-out: Cytotoxicity IC50, DERL-2. As to the method:
as §1, §2

A short description of data set [14]: In vitro cytotoxicity, human peripheral blood mononuclear cells. The class given is cell-based. To be noted: CellTiter-Glo 2.0, stimulated with PHA-M and IL-2, read-out: Cytotoxicity IC50, hPBMC. As for the experimental part:
as §1, §2
In general terms: In ATP-based viability assays light output follows the ATP content of the culture.

Take `Cn1c(CCCC(=O)O)nc2cc(N(CCCl)CCCl)ccc21` [Bendamustine, bendamustine, reference compound]: the IC50 worked out at 73.5 µM in data set [1]; 12.5 µM in data set [2]; 111 µM in data set [3]; 25.1 µM in data set [4]; 10.7 µM in data set [5]; 57 µM in data set [6]. The IC50 came out at 27.1 µM in [8], 14.3 µM in [9], 33.5 µM in [10] and 21.1 µM in [13]. Besides, the “DNA damage on nuclear and mitochondrial DNA (PCR band)” value in data set [7] is “no or very minor effect on DNA damage”. In addition, the “Intracellular concentration (in words)” value in data set [11] (MM.1S cells incubated with test compound 5, 15, 60 min, metabolites measured after treatment with the parent Example compound) is on record as “Low intracellular concentrations”. Further, the “Extracellular concentration (in words)” value in data set [11] (media of MM.1S cells incubated with test compound 5, 15, 60 min, metabolites measured after treatment with the parent Example compound) was “quite high and decreased overtime”. The “Cells with DNA breaks (TUNEL positive cells)” value in data set [12] was “that was not the case”. Further, the “Dose response effect on DNA damage (TUNEL)” value in [12] is given as “no obvious effect”. In [14], the IC50 at 72 h was determined as 15.8 µM.

Take `CCOC(=O)[C@H](CC(C)C)NC(=O)[C@@H](N)CCc1nc2cc(N(CCCl)CCCl)ccc2n1C` [Example 1, Ethyl (2S)-2-[[(2S)-2-amino-4-[5-[bis(2-chloroethyl)amino]-1-methyl-benzimidazol-2-yl]butanoyl]amino]-4-methyl-pentanoate]: the IC50 in data set [1] is 0.0347 µM; in data set [2], 0.0045 µM; in [3], 0.0906 µM; in [4] it was 0.0133 µM; in data set [5] it was 0.0042 µM; in data set [6], 0.0497 µM. Besides, the IC50 in data set [8] was 0.0098 µM; in [9], 0.0199 µM; in [10], 0.0127 µM; in data set [13], 0.006 µM. Moreover, the “DNA damage on nuclear and mitochondrial DNA (PCR band)” value in data set [7] is given as “strong DNA damaging effect”. For the same compound, the “Intracellular hydrolysis / formation of metabolites” value in [11] (MM.1S cells, 5, 15, 60 min) is on record as “hydrolysis of Example compound 1 took place inside the cells”. Also, the “Cells with DNA breaks (TUNEL positive cells)” value in data set [12] is more than 90%. Also, the “Dose response effect on DNA damage (TUNEL)” value in data set [12] is listed as “induced DNA damage in a dose-dependent manner”. Moreover, the IC50 at 72 h in [14] turned out to be 0.0054 µM.
